Laboratory results taken from article PMC6156755, “Using Human Plasma as an Assay Medium in Caco-2 Studies Improves Mass Balance for Lipophilic Compounds” (Pharmaceutical Research, 2018).

Legend:
[1] = Caco-2 permeability assay with pH 7.4 buffer or human plasma in both chambers; settings: human
[2] = test system: P-gp; assay: as above; settings: human, Caco-2, pH 7.4, with verapamil 100 µM, Papp B-A, + 100 μM verapamil
[3] = test system: Caco-2 cell monolayer; assay: as above
[4] = Human plasma protein binding (ultracentrifugation or rapid equilibrium dialysis); assay type: in vitro ADME; settings: pH 7.4; neat human plasma, 37°C, concentration comparable to Caco-2 assay; read-out: fu (fraction unbound in plasma)
Method: Binding was assessed using one of two methods: ultracentrifugation ([31]) using neat human plasma or rapid equilibrium dialysis (RED) using either neat or diluted plasma. […] To allow analysis with a single calibration curve, the total plasma and protein-free supernatant samples were ‘matrix-matched’ by taking aliquots of protein-free supernatant samples and adding to fresh tubes containing an equal volume of blank plasma, or taking aliquots of the total plasma samples and adding to fresh tubes containing an equal volume of Dulbecco’s phosphate-buffered saline (DPBS). In this way, the final composition of both the protein-free supernatant samples and the total plasma samples were ‘matched’ prior to the analysis against a common calibration curve prepared in a 1:1 mixture of human plasma and DPBS. All samples were then stored frozen at −80°C until analysis.
The holding plate was then placed on a plate shaker (set at 800 rpm; ThermoMixer C, Eppendorf) and maintained at 37°C under a 2% CO2 atmosphere. The dialysis was conducted for 6 h, assuming steady state was achieved by the end of this period ([32]). Samples were then removed from both the donor and dialysate chambers of each RED insert. […] Samples were matrix matched as described above (but using PBS buffer instead of DPBS) and stored at −80°C until analysis.
For the more lipophilic compounds with potential for very high binding, the RED method was used with diluted plasma to increase the chance of detecting concentrations in the dialysate samples. Diluted human plasma (10% v/v in pH 7.4 phosphate buffered saline) was spiked with each compound (at 10% of the concentration used for the Caco-2 experiment with neat plasma) and binding conducted as described above. The binding in neat plasma was then calculated by correcting for the dilution as described below.
For binding measurements in neat plasma by ultracentrifugation, the fraction unbound (fu) was calculated from the ratio of the average unbound concentration in protein free supernate (Cunbound) to the average total concentration in non-centrifuged plasma (Ctotal). The standard deviation (SD) for the fu value was calculated using the propagation of errors approach as described previously ([33]). For binding measurements using the RED method in neat plasma, fu was calculated from the ratio of the dialysate to total plasma concentration for each dialysis unit and the mean and SD calculated for replicate units (n = 3).
For RED binding assessments using 10% plasma, the fu − diluted for individual dialysis units was calculated in the same way as described above.

[5] = in vitro; settings: human

Papp A→B ([1]; Caco-2, pH 7.4, Papp A-B, buffer pH 7.4 in both chambers): 2.7 ± 0.21 ×10⁻⁶ cm/s
Papp B→A ([1]; Caco-2, pH 7.4, Papp B-A, buffer pH 7.4 in both chambers): 18 ± 0.58 ×10⁻⁶ cm/s
Papp A→B ([1]; Caco-2, pH 7.4, with verapamil 100 µM, Papp A-B, buffer, + 100 μM verapamil): 4.6 ± 0.46 ×10⁻⁶ cm/s
Papp A→B ([1]; Caco-2, pH 7.4, with verapamil 100 µM, Papp A-B, plasma, + 100 μM verapamil, corrected for fu): 6.2 ± 1 ×10⁻⁶ cm/s
Papp B→A ([2]; buffer): 5.8 ± 0.53 ×10⁻⁶ cm/s
Papp B→A ([2]; plasma, corrected for fu): 7.4 ± 0.49 ×10⁻⁶ cm/s
Mass balance B-A ([3]; buffer pH 7.4 in both chambers): 100 ± 0%
Mass balance B-A ([3]; buffer, + 100 μM verapamil): 100 ± 0.58%
Mass balance A-B ([3]; buffer, + 100 μM verapamil (P-gp inhibitor)): 99 ± 0.58%
Mass balance B-A ([3]; human plasma in both chambers): 100 ± 5.8%
Mass balance A-B ([3]; plasma, + 100 μM verapamil): 96 ± 2.1%
Mass balance B-A ([3]; plasma, + 100 μM verapamil): 99 ± 0.58%
fraction unbound [4]: 0.61
Papp A→B ([5]; Caco-2, pH 7.4, Papp A-B): 4.7 ± 0.15 ×10⁻⁶ cm/s
Papp B→A ([5]; Caco-2, pH 7.4, Papp B-A): 26 ± 1.5 ×10⁻⁶ cm/s
Structure (SMILES): C[C@H]1O[C@@H](O[C@H]2[C@@H](O)C[C@H](O[C@H]3[C@@H](O)C[C@H](O[C@H]4CC[C@@]5(C)[C@H](CC[C@@H]6[C@@H]5C[C@@H](O)[C@]5(C)[C@@H](C7=CC(=O)OC7)CC[C@]65O)C4)O[C@@H]3C)O[C@@H]2C)C[C@H](O)[C@@H]1O [^3H-Digoxin, [^3H(G)]-digoxin]
